The supplement of paper PMC11451515

System: NOMO1
Test: cell viability relative to DMSO control; higher = less cytotoxic
Details: 48 h
In short: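 Before seeding, each leukemia line was adapted for at least four passages in each medium. NOMO1 or SEM cells (500 cells/well) and P12-Ichikawa cells (1000 cells/well) went into 1536-well plates at 5 μl, then received library compounds in DMSO by pin dosing across 11 threefold concentrations, 47 μM to 0.79 nM. Readout was CellTiter-Glo One luminescence after 48 h at 37°C, and viability is given as a per-plate percentage of DMSO wells, with cell-free wells as background.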

[1] = HPLM + 10% dialyzed FBS, 0.000781 µM
[2] = HPLM + 10% dialyzed FBS, 0.00234 µM
[3] = HPLM + 10% dialyzed FBS, 0.00702 µM
[4] = HPLM + 10% dialyzed FBS, 0.0211 µM
[5] = HPLM + 10% dialyzed FBS, 0.0632 µM
[6] = HPLM + 10% dialyzed FBS, 0.19 µM
[7] = HPLM + 10% dialyzed FBS, 0.569 µM
[8] = HPLM + 10% dialyzed FBS, 1.71 µM
[9] = HPLM + 10% dialyzed FBS, 5.12 µM
[10] = HPLM + 10% dialyzed FBS, 15.4 µM
[11] = HPLM + 10% dialyzed FBS, 46.1 µM
[12] = RPMI 5 mM glucose + 10% FBS, 0.000781 µM
[13] = RPMI 5 mM glucose + 10% FBS, 0.00234 µM
[14] = RPMI 5 mM glucose + 10% FBS, 0.00702 µM
[15] = RPMI 5 mM glucose + 10% FBS, 0.0211 µM
[16] = RPMI 5 mM glucose + 10% FBS, 0.0632 µM
[17] = RPMI 5 mM glucose + 10% FBS, 0.19 µM
[18] = RPMI 5 mM glucose + 10% FBS, 0.569 µM
[19] = RPMI 5 mM glucose + 10% FBS, 1.71 µM
[20] = RPMI 5 mM glucose + 10% FBS, 5.12 µM
[21] = RPMI 5 mM glucose + 10% FBS, 15.4 µM
[22] = RPMI 5 mM glucose + 10% FBS, 46.1 µM
[23] = RPMI 5 mM glucose + 10% dialyzed FBS, 0.000781 µM
[24] = RPMI 5 mM glucose + 10% dialyzed FBS, 0.00234 µM
[25] = RPMI 5 mM glucose + 10% dialyzed FBS, 0.00702 µM
[26] = RPMI 5 mM glucose + 10% dialyzed FBS, 0.0211 µM
[27] = RPMI 5 mM glucose + 10% dialyzed FBS, 0.0632 µM
[28] = RPMI 5 mM glucose + 10% dialyzed FBS, 0.19 µM
[29] = RPMI 5 mM glucose + 10% dialyzed FBS, 0.569 µM
[30] = RPMI 5 mM glucose + 10% dialyzed FBS, 1.71 µM
[31] = RPMI 5 mM glucose + 10% dialyzed FBS, 5.12 µM
[32] = RPMI 5 mM glucose + 10% dialyzed FBS, 15.4 µM
[33] = RPMI 5 mM glucose + 10% dialyzed FBS, 46.1 µM

## O=C(c1cncc(Br)c1)N1CCC(N2CCCC2)CC1
[1]
  cell viability: 97.9%
[2]
  cell viability: 122%
[3]
  cell viability: 124%
[4]
  cell viability: 110%
[5]
  cell viability: 103%
[6]
  cell viability: 105%
[7]
  cell viability: 97.1%
[8]
  cell viability: 105%
[9]
  cell viability: 103%
[10]
  cell viability: 92.2%
[11]
  cell viability: 85.3%
[12]
  cell viability: 93.5%
[13]
  cell viability: 95.9%
[14]
  cell viability: 110%
[15]
  cell viability: 90.6%
[16]
  cell viability: 91.4%
[17]
  cell viability: 96.5%
[18]
  cell viability: 102%
[19]
  cell viability: 93.1%
[20]
  cell viability: 94.6%
[21]
  cell viability: 85.4%
[22]
  cell viability: 84.4%
[23]
  cell viability: 112%
[24]
  cell viability: 105%
[25]
  cell viability: 106%
[26]
  cell viability: 106%
[27]
  cell viability: 105%
[28]
  cell viability: 103%
[29]
  cell viability: 100%
[30]
  cell viability: 100%
[31]
  cell viability: 98.7%
[32]
  cell viability: 98.7%
[33]
  cell viability: 95.9%

## CC1(C)SCCN([S+](=O)([O-])c2ccc(OCC#CCO)cc2)[C@H]1C(=O)NO
[1]
  cell viability: 121%
[2]
  cell viability: 108%
[3]
  cell viability: 102%
[4]
  cell viability: 101%
[5]
  cell viability: 124%
[6]
  cell viability: 126%
[7]
  cell viability: 115%
[8]
  cell viability: 112%
[9]
  cell viability: 99.6%
[10]
  cell viability: 107%
[11]
  cell viability: 83.7%
[12]
  cell viability: 105%
[13]
  cell viability: 88.3%
[14]
  cell viability: 99.4%
[15]
  cell viability: 95.8%
[16]
  cell viability: 104%
[17]
  cell viability: 93%
[18]
  cell viability: 93.9%
[19]
  cell viability: 87.5%
[20]
  cell viability: 77.5%
[21]
  cell viability: 77.4%
[22]
  cell viability: 82.4%
[23]
  cell viability: 96.3%
[24]
  cell viability: 94.8%
[25]
  cell viability: 103%
[26]
  cell viability: 90.2%
[27]
  cell viability: 89.7%
[28]
  cell viability: 98.5%
[29]
  cell viability: 84.1%
[30]
  cell viability: 94.3%
[31]
  cell viability: 97.3%
[32]
  cell viability: 95.6%
[33]
  cell viability: 93.3%

## O=C(O)c1cc(O)c2c(c1)C(=O)c1cccc(O)c1C2=O
[1]
  cell viability: 113%
[2]
  cell viability: 111%
[3]
  cell viability: 127%
[4]
  cell viability: 107%
[5]
  cell viability: 127%
[6]
  cell viability: 117%
[7]
  cell viability: 127%
[8]
  cell viability: 125%
[9]
  cell viability: 113%
[10]
  cell viability: 104%
[11]
  cell viability: 94.3%
[12]
  cell viability: 115%
[13]
  cell viability: 120%
[14]
  cell viability: 116%
[15]
  cell viability: 121%
[16]
  cell viability: 114%
[17]
  cell viability: 101%
[18]
  cell viability: 103%
[19]
  cell viability: 110%
[20]
  cell viability: 107%
[21]
  cell viability: 99.5%
[22]
  cell viability: 104%
[23]
  cell viability: 110%
[24]
  cell viability: 119%
[25]
  cell viability: 102%
[26]
  cell viability: 121%
[27]
  cell viability: 112%
[28]
  cell viability: 107%
[29]
  cell viability: 112%
[30]
  cell viability: 119%
[31]
  cell viability: 119%
[32]
  cell viability: 95.4%
[33]
  cell viability: 96.2%

## Cc1cn2cc(C(=O)N(C)CCO)cc(N[C@@H]3CCOc4cccc(C)c43)c2n1
[1]
  cell viability: 93.8%
[2]
  cell viability: 105%
[3]
  cell viability: 112%
[4]
  cell viability: 118%
[5]
  cell viability: 122%
[6]
  cell viability: 115%
[7]
  cell viability: 110%
[8]
  cell viability: 131%
[9]
  cell viability: 119%
[10]
  cell viability: 108%
[11]
  cell viability: 130%
[12]
  cell viability: 96.2%
[13]
  cell viability: 108%
[14]
  cell viability: 107%
[15]
  cell viability: 104%
[16]
  cell viability: 105%
[17]
  cell viability: 106%
[18]
  cell viability: 113%
[19]
  cell viability: 111%
[20]
  cell viability: 122%
[21]
  cell viability: 117%
[22]
  cell viability: 129%
[23]
  cell viability: 105%
[24]
  cell viability: 104%
[25]
  cell viability: 114%
[26]
  cell viability: 130%
[27]
  cell viability: 114%
[28]
  cell viability: 110%
[29]
  cell viability: 122%
[30]
  cell viability: 117%
[31]
  cell viability: 115%
[32]
  cell viability: 128%
[33]
  cell viability: 129%

## CC(C(C)N1CC(=O)NC(=O)C1)N1CC(=O)NC(=O)C1 (stereo not drawn)
[23]
  cell viability: 110%
[24]
  cell viability: 121%
[25]
  cell viability: 139%
[26]
  cell viability: 133%
[27]
  cell viability: 127%
[28]
  cell viability: 123%
[29]
  cell viability: 139%
[30]
  cell viability: 135%
[31]
  cell viability: 130%
[32]
  cell viability: 124%
[33]
  cell viability: 106%
